In PMC9014410, “Discovery of V-0219: A Small-Molecule Positive Allosteric Modulator of the Glucagon-Like Peptide-1 Receptor toward Oral Treatment for “Diabesity”” (Journal of Medicinal Chemistry, 2022) one finds Emax data, which are given here for 74 compounds.

As a reminder, the Emax is the maximal effect, on the per cent scale that the assay sets.

Chain of hGLP-1R (P43220 24-463): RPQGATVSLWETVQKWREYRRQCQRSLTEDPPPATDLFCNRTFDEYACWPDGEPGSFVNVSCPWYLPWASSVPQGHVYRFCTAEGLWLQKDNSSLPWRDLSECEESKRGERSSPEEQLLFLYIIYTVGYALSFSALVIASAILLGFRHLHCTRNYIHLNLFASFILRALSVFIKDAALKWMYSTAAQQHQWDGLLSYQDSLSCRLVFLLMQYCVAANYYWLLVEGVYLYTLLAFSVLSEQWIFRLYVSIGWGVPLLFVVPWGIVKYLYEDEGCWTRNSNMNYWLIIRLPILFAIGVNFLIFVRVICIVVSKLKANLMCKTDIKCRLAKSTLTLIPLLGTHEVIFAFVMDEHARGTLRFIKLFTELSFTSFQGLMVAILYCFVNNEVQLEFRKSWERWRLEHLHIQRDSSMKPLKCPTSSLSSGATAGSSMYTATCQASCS

The assay concerns the target hGLP-1R (Homo sapiens, UniProt P43220). The assay is described as follows: cAMP accumulation in HEK-293 cells expressing hGLP-1R (HEK-GLP-1 cells). The format is cell-based. To be noted: HEK293, read-out: Potentiation of GLP-1 Emax at 10 ?M in a cAMP assay (%); 10 ?M compound (supplementary csv). The method, then:
After this time the culture medium was replaced by 20 μL fresh Opti-MEM containing 500 μM IBMX and 100 μM K579 and incubated with gentle stirring for 10 min at rt. […] Concentration-response curves were fitted to a 4-parameter logistic equation by using GraphPad Prism 2.1 software.
(In general: cAMP levels reflect the balance of adenylyl cyclase and phosphodiesterase activity.)
With `O=C(CC1CCN(Cc2nc(-c3ccc(C(F)(F)F)cc3)no2)CC1)NS(=O)(=O)c1ccc(C(F)(F)F)cc1` [S62], the Emax is under 30%.
With `O=S(=O)(NCC1CCN(Cc2nc(-c3ccc(C(F)(F)F)cc3)no2)CC1)c1cccc(F)c1` [S31] the figure was under 30%; with `Clc1ccccc1-c1noc(CN2CCCC(CN3CCOCC3)C2)n1` (centres unmarked) [S79], under 30%.
With `O=C(NS(=O)(=O)Cc1ccccc1)C1CCN(Cc2nc(-c3ccc(C(F)(F)F)cc3)no2)CC1` [S39] the figure was under 30%; with `CS(=O)(=O)NC1CCN(Cc2nc(-c3ccc(C(F)(F)F)cc3)no2)CC1` [S1], under 30%; with `COc1ccc(Br)cc1S(=O)(=O)NC1CCN(Cc2nc(-c3ccc(C(F)(F)F)cc3)no2)CC1` [S18], under 30%.
With `Fc1cccc(-c2noc(CN3CCCC(CN4CCOCC4)C3)n2)c1` (centres unmarked) [S77], the Emax was under 30%.
With `O=S(=O)(NC1CCN(Cc2nc(-c3ccc(C(F)(F)F)cc3)no2)CC1)c1cccc(F)c1` [S13] the figure was under 30%; with `Cc1ccc(-c2noc(CN3CCCC(CN4CCOCC4)C3)n2)cc1` (centres unmarked) [S69], under 30%.
For the compound `O=S(=O)(Cc1ccccc1)NC1CCN(Cc2nc(-c3ccc(C(F)(F)F)cc3)no2)CC1` [S3], the Emax was under 30%.
Regarding `O=C(NS(=O)(=O)c1ccccc1Cl)C1CCN(Cc2nc(-c3ccc(C(F)(F)F)cc3)no2)CC1` [S44], the Emax was under 30%.
With `O=[N+]([O-])c1ccccc1S(=O)(=O)NCC1CCN(Cc2nc(-c3ccc(C(F)(F)F)cc3)no2)CC1` [S24] the figure was under 30%.
With `O=S(=O)(NCC1CCN(Cc2nc(-c3ccc(C(F)(F)F)cc3)no2)CC1)c1ccc(Cl)cc1` [S30] the figure was under 30%; with `O=S(=O)(NCC1CCN(Cc2nc(-c3ccc(C(F)(F)F)cc3)no2)CC1)c1ccccc1Cl` [S28], under 30%.
With `CNc1ccccc1-c1noc(CN2CCCC(CN3CCOCC3)C2)n1` (centres unmarked) [S73], the maximal response (Emax) is under 30%.
With `Cc1cccc(-c2noc(CN3CCCC(CN4CCOCC4)C3)n2)c1` (centres unmarked) [S68] the figure was under 30%.
With `O=[N+]([O-])c1ccc(S(=O)(=O)NC2CCN(Cc3nc(-c4ccc(C(F)(F)F)cc4)no3)CC2)cc1` [S6] the figure was under 30%; with `O=C(NS(=O)(=O)c1ccc(OC(F)(F)F)cc1)C1CCN(Cc2nc(-c3ccc(C(F)(F)F)cc3)no2)CC1` [S50], under 30%; with `CNc1ccc(-c2noc(CN3CCCC(CN4CCOCC4)C3)n2)cc1` (centres unmarked) [S75], under 30%.
With `CCS(=O)(=O)NC(=O)C1CCN(Cc2nc(-c3ccc(C(F)(F)F)cc3)no2)CC1` [S37] the figure was under 30%; with `O=S(=O)(NC1CCN(Cc2nc(-c3ccc(C(F)(F)F)cc3)no2)CC1)c1ccc(F)cc1` [S14], under 30%.
As to `O=C(CC1CCN(Cc2nc(-c3ccc(C(F)(F)F)cc3)no2)CC1)NS(=O)(=O)c1ccc(OC(F)(F)F)cc1` [S63], the Emax is under 30%.
Consider `NC(=O)c1cccc(-c2noc(CN3CCCC(CN4CCOCC4)C3)n2)c1` (centres unmarked) [S84], for which the maximal response (Emax) was under 30%.
As for `Cc1ccccc1S(=O)(=O)NC(=O)CC1CCN(Cc2nc(-c3ccc(C(F)(F)F)cc3)no2)CC1` [S60], the Emax was under 30%.
On to `N#Cc1cccc(S(=O)(=O)NC2CCN(Cc3nc(-c4ccc(C(F)(F)F)cc4)no3)CC2)c1` [S8], for which the maximal effect (Emax) is under 30%.
Turning to `CNc1cccc(-c2noc(CN3CCCC(CN4CCOCC4)C3)n2)c1` (centres unmarked) [S74], the Emax was under 30%.
With `O=[N+]([O-])c1ccccc1S(=O)(=O)NC1CCN(Cc2nc(-c3ccc(C(F)(F)F)cc3)no2)CC1` [S5] the figure was under 30%.
With `N#Cc1ccccc1S(=O)(=O)NCC1CCN(Cc2nc(-c3ccc(C(F)(F)F)cc3)no2)CC1` [S25] the figure was under 30%; with `COc1ccc(Br)cc1S(=O)(=O)NC(=O)CC1CCN(Cc2nc(-c3ccc(C(F)(F)F)cc3)no2)CC1` [S64], under 30%.
With `O=C(NS(=O)(=O)c1ccc(C(F)(F)F)cc1)C1CCN(Cc2nc(-c3ccc(C(F)(F)F)cc3)no2)CC1` [S49], the Emax is under 30%.
With `N#Cc1ccc(S(=O)(=O)NC2CCN(Cc3nc(-c4ccc(C(F)(F)F)cc4)no3)CC2)cc1` [S9] the figure was under 30%.
With `O=C(CC1CCN(Cc2nc(-c3ccc(C(F)(F)F)cc3)no2)CC1)NS(=O)(=O)c1cccc(Cl)c1` [S58] the figure was under 30%; with `Cc1ccccc1S(=O)(=O)NC(=O)C1CCN(Cc2nc(-c3ccc(C(F)(F)F)cc3)no2)CC1` [S47], under 30%; with `O=S(=O)(NCC1CCN(Cc2nc(-c3ccc(C(F)(F)F)cc3)no2)CC1)c1ccc(F)cc1` [S32], under 30%.
As to `CCCS(=O)(=O)NC(=O)C1CCN(Cc2nc(-c3ccc(C(F)(F)F)cc3)no2)CC1` [S38], the maximum response (Emax) was under 30%.
With `COC(=O)c1ccc(-c2noc(CN3CCCC(CN4CCOCC4)C3)n2)cc1` (centres unmarked) [S83] the figure was under 30%; with `Fc1ccc(-c2noc(CN3CCCC(CN4CCOCC4)C3)n2)cc1` (centres unmarked) [S78], under 30%; with `CC(=O)c1cccc(S(=O)(=O)NC2CCN(Cc3nc(-c4ccc(C(F)(F)F)cc4)no3)CC2)c1` [S4], under 30%.
With `O=S(=O)(NC1CCN(Cc2nc(-c3ccc(C(F)(F)F)cc3)no2)CC1)c1cccc(Cl)c1` [S10] the figure was under 30%.
With `O=C(NS(=O)(=O)c1ccc(F)cc1)C1CCN(Cc2nc(-c3ccc(C(F)(F)F)cc3)no2)CC1` [S43] the figure was under 30%; with `COc1cccc(-c2noc(CN3CCCC(CN4CCOCC4)C3)n2)c1` (centres unmarked) [S71], under 30%; with `COc1ccc(S(=O)(=O)NCC2CCN(Cc3nc(-c4ccc(C(F)(F)F)cc4)no3)CC2)cc1` [S34], under 30%.
Take `O=C(CC1CCN(Cc2nc(-c3ccc(C(F)(F)F)cc3)no2)CC1)NS(=O)(=O)c1ccc(Cl)cc1` [S59]: the Emax is under 30%.
With `O=S(=O)(NC1CCN(Cc2nc(-c3ccc(C(F)(F)F)cc3)no2)CC1)c1ccc(Cl)cc1` [S11] the figure was under 30%; with `Cc1ccccc1S(=O)(=O)NC1CCN(Cc2nc(-c3ccc(C(F)(F)F)cc3)no2)CC1` [S15], under 30%; with `Cc1ccc([N+](=O)[O-])cc1S(=O)(=O)NC1CCN(Cc2nc(-c3ccc(C(F)(F)F)cc3)no2)CC1` [S19], under 30%.
In the case of `Cc1ccccc1-c1noc(CN2CCCC(CN3CCOCC3)C2)n1` (centres unmarked) [S67], the Emax was under 30%.
With `CC(=O)c1cccc(S(=O)(=O)NC(=O)C2CCN(Cc3nc(-c4ccc(C(F)(F)F)cc4)no3)CC2)c1` [S40] the figure was under 30%; with `CCCS(=O)(=O)NC1CCN(Cc2nc(-c3ccc(C(F)(F)F)cc3)no2)CC1` [S2], under 30%; with `Clc1cccc(-c2noc(CN3CCCC(CN4CCOCC4)C3)n2)c1` (centres unmarked) [S80], under 30%.
With `O=C(NS(=O)(=O)c1cccc(F)c1)C1CCN(Cc2nc(-c3ccc(C(F)(F)F)cc3)no2)CC1` [S42] the figure was under 30%; with `O=C(NS(=O)(=O)c1ccccc1F)C1CCN(Cc2nc(-c3ccc(C(F)(F)F)cc3)no2)CC1` [S41], under 30%; with `O=C(CC1CCN(Cc2nc(-c3ccc(C(F)(F)F)cc3)no2)CC1)NS(=O)(=O)Cc1ccccc1` [S54], under 30%.
For `O=C(NS(=O)(=O)c1ccc(Cl)cc1)C1CCN(Cc2nc(-c3ccc(C(F)(F)F)cc3)no2)CC1` [S46], the Emax is under 30%.
With `O=S(=O)(Cc1ccccc1)NCC1CCN(Cc2nc(-c3ccc(C(F)(F)F)cc3)no2)CC1` [S22] the figure was under 30%.
With `N#Cc1cccc(S(=O)(=O)NCC2CCN(Cc3nc(-c4ccc(C(F)(F)F)cc4)no3)CC2)c1` [S26] the figure was under 30%.
With `N#Cc1ccccc1S(=O)(=O)NC1CCN(Cc2nc(-c3ccc(C(F)(F)F)cc3)no2)CC1` [S7] the figure was under 30%.
For `O=S(=O)(NCC1CCN(Cc2nc(-c3ccc(C(F)(F)F)cc3)no2)CC1)c1ccc(C(F)(F)F)cc1` [S35], the Emax was under 30%.
With `COc1ccccc1-c1noc(CN2CCCC(CN3CCOCC3)C2)n1` (centres unmarked) [S70] the figure was under 30%; with `O=C(CC1CCN(Cc2nc(-c3ccc(C(F)(F)F)cc3)no2)CC1)NS(=O)(=O)c1ccc(F)cc1` [S57], under 30%; with `COc1ccc(Br)cc1S(=O)(=O)NC(=O)C1CCN(Cc2nc(-c3ccc(C(F)(F)F)cc3)no2)CC1` [S51], under 30%.
`COc1ccc(S(=O)(=O)NC(=O)C2CCN(Cc3nc(-c4ccc(C(F)(F)F)cc4)no3)CC2)cc1` [S48]: the maximal effect (Emax) was under 30%.
With `O=C(CC1CCN(Cc2nc(-c3ccc(C(F)(F)F)cc3)no2)CC1)NS(=O)(=O)c1cccc(F)c1` [S56] the figure was under 30%; with `NC(=O)c1ccc(-c2noc(CN3CCCC(CN4CCOCC4)C3)n2)cc1` (centres unmarked) [S85], under 30%.
With `COc1ccc(S(=O)(=O)NC(=O)CC2CCN(Cc3nc(-c4ccc(C(F)(F)F)cc4)no3)CC2)cc1` [S61] the figure was under 30%; with `FC(F)(F)c1cccc(-c2noc(CN3CCCC(CN4CCOCC4)C3)n2)c1` (centres unmarked) [S66], under 30%.
On to `CNC(=O)c1cccc(-c2noc(CN3CCCC(CN4CCOCC4)C3)n2)c1` (centres unmarked) [S86], for which the Emax was under 30%.
With `O=S(=O)(NC1CCN(Cc2nc(-c3ccc(C(F)(F)F)cc3)no2)CC1)c1ccc(OC(F)(F)F)cc1` [S17] the figure was under 30%; with `Cc1ccccc1S(=O)(=O)NCC1CCN(Cc2nc(-c3ccc(C(F)(F)F)cc3)no2)CC1` [S33], under 30%; with `CNC(=O)c1ccc(-c2noc(CN3CCCC(CN4CCOCC4)C3)n2)cc1` (centres unmarked) [S87], under 30%.
With `CS(=O)(=O)NCC1CCN(Cc2nc(-c3ccc(C(F)(F)F)cc3)no2)CC1` [S20] the figure was under 30%; with `FC(F)(F)c1ccccc1-c1noc(CN2CCCC(CN3CCOCC3)C2)n1` (centres unmarked) [S65], under 30%.
Consider `COC(=O)c1cccc(-c2noc(CN3CCCC(CN4CCOCC4)C3)n2)c1` (centres unmarked) [S82], for which the Emax is under 30%.
With `O=S(=O)(NCC1CCN(Cc2nc(-c3ccc(C(F)(F)F)cc3)no2)CC1)c1cccc(Cl)c1` [S29] the figure was under 30%.
